Results published in patent publication US12018026B1, “Pyrido[4,3-e][1,2,3]triazolo[1,5-a]pyrimidine as CK2 inhibitors” (KING FAISAL UNIVERSITY, priority 2024, dated 2024).

Key:
PC3 (prostate) = experiment: In vitro cytotoxic activity MTT assay, PC3; assay type: cell-based; conditions: Homo sapiens; cells exposed for 96 hours; read-out: Cytotoxicity activity IC50, PC3 (prostate)
Procedure: (§1) Compounds 1-16 were screened for their in vitro cytotoxic activity utilizing a 3-(4,5-dimethyl-thiazol-2-yl)-2,5-diphenyltetrazolium bromide (MTT) assay against selected cancer human cell lines consisting of PC3 (prostate), HCT116 (colon), A375 (melanoma), H1299 (lung), MIAPaCa-2 (pancreas), HL60 (leukemia), MCF7 (breast), MDA-MB-231 (breast) (T. Mosmann, J. Immunol. Meth., 1983, 65, 55-63). The cells were cultured at 37° C. in RMPI1640 medium supplemented with 10% fetal bovine serum, 50 IU/mL penicillin, and 50 μg/mL streptomycin in a 5% CO2 incubator. All cells were sub-cultured 3 times/week by trypsinisation. Viable cells were seeded and allowed to adhere for 12 hours before a test drug was added in 96-well plates at an initial density of 1.0×10^5 cells/mL. Tumor cell lines were separately exposed to various concentrations of the tested compounds followed by incubation at a temperature of 37° C. during 96 hours inside a medium of fresh RMPI 1640. Cells were subsequently incubated at 37° C. using MTT at 0.5 mg/mL during 4 hours. After removal of supernatant, formazan crystals were dissolved in isopropanol and the optical density was measured at 570 nm. CX-4945 was used as a positive control.

HCT116 (colon) = experiment: In vitro cytotoxic activity MTT assay, HCT116; assay type: cell-based; conditions: Homo sapiens, HCT-116; cells exposed for 96 hours; read-out: Cytotoxicity activity IC50, HCT116 (colon)
Procedure: as §1

A375 (melanoma) = experiment: In vitro cytotoxic activity MTT assay, A375; assay type: cell-based; conditions: Homo sapiens, A-375; cells exposed for 96 hours; read-out: Cytotoxicity activity IC50, A375 (melanoma)
Procedure: as §1

H1299 (lung) = experiment: In vitro cytotoxic activity MTT assay, H1299; assay type: cell-based; conditions: Homo sapiens, NCI-H1299; cells exposed for 96 hours; read-out: Cytotoxicity activity IC50, H1299 (lung)
Procedure: as §1

MIAPaCa-2 (pancreas) = experiment: In vitro cytotoxic activity MTT assay, MIAPaCa-2; assay type: cell-based; conditions: Homo sapiens, MIA PaCa-2; cells exposed for 96 hours; read-out: Cytotoxicity activity IC50, MIAPaCa-2 (pancreas)
Procedure: as §1

HL60 (leukemia) = experiment: In vitro cytotoxic activity MTT assay, HL60; assay type: cell-based; conditions: Homo sapiens, HL-60; cells exposed for 96 hours; read-out: Cytotoxicity activity IC50, HL60 (leukemia)
Procedure: as §1

MCF7 (breast) = experiment: In vitro cytotoxic activity MTT assay, MCF7; assay type: cell-based; conditions: Homo sapiens, cells exposed for 96 hours, read-out: Cytotoxicity activity IC50, MCF7 (breast)
Procedure: as §1

MDA-MB-231 (breast) = experiment: In vitro cytotoxic activity MTT assay, MDA-MB-231; assay type: cell-based; conditions: Homo sapiens, cells exposed for 96 hours, read-out: Cytotoxicity activity IC50, MDA-MB-231 (breast)
Procedure: as §1

[1] = molecular target: T1, recombinant human CK2 (RRββ-holoenzyme) (Homo sapiens, UniProt P68400); experiment: CK2 Kinase Assay (33P-ATP, substrate peptide RRRDDDSDDD); assay type: biochemical; conditions: final ATP concentration 15 μM, 10 min at 30° C.; read-out: protein kinase CK2 IC50
T1 construct: purchased Millipore
T1 sequence (P68400 whole entry): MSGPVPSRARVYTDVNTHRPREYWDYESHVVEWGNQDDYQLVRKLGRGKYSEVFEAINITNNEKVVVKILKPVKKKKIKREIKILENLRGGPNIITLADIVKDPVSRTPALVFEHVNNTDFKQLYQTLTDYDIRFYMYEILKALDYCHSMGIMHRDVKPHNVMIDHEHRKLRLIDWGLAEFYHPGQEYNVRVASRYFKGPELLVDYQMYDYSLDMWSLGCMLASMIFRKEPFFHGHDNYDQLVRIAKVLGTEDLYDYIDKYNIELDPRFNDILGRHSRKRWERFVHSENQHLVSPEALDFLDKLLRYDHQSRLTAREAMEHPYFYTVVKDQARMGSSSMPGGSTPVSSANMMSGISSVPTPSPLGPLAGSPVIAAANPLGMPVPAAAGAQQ
T1 sequence (P67870 whole entry partner): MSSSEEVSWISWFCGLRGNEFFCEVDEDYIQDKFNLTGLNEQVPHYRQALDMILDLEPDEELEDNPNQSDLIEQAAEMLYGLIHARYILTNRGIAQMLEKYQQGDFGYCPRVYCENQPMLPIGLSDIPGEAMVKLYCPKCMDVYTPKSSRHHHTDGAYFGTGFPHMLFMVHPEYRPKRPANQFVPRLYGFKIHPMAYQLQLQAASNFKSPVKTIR
Procedure: CK2 Kinase Assay was conducted using the protocol as described in Pierre F. et al; J. Med. Chem. 2011, 54, 635-654. The tested compounds in aqueous solution were added at a volume of 10 μL to a reaction mixture comprising 10 μL of assay dilution buffer (ADB; 20 mM MOPS, pH 7.2, 25 mM β-glycerol phosphate, 5 mM EGTA, 1 mM sodium orthovanadate, and 1 mM dithiothreitol), 10 μL of substrate peptide (RRRDDDSDDD, dissolved in ADB at a concentration of 1 mM), 10 μL of recombinant human CK2 (RRββ-holoenzyme, 25 ng dissolved in ADB; Millipore). Reactions were initiated by the addition of 10 μL of ATP solution (90% 75 mMMgCl2, 75 μM ATP (final ATP concentration: 15 μM) dissolved in ADB; 10% [γ-33P] ATP (stock 1mCi/100 L; 3000 Ci/mmol (Perkin-Elmer) and maintained for 10 min at 30° C. The reactions were quenched with 100 μL of 0.75% phosphoric acid and then transferred to and filtered through a phosphor cellulose filter plate (Millipore). After washing each well five times with 0.75% phosphoric acid, the plate was dried under vacuum for 5 min and, following the addition of 15 μL of scintillation fluid to each well, the residual radioactivity was measured using a Wallac luminescence counter. The IC50 values were derived from eight concentrations of test inhibitors.

**Q.** For `O=C(O)c1nnn2c1nc(Nc1cccc(Cl)c1)c1ccncc12` [Compound 1, 5-((3-chlorophenyl)amino)pyrido[4,3-e][1,2,3]triazolo[1,5-a]pyrimidine-3-carboxylic acid], which IC50 (PC3 (prostate)) is on record?
**A.** 1.4 µM

**Q.** What about the IC50 (HCT116 (colon)) of the same compound?
**A.** 2.5 µM

**Q.** And the IC50 (A375 (melanoma))?
**A.** 5.7 µM

**Q.** What about the IC50 (H1299 (lung)) of the same compound?
**A.** 3.3 µM

**Q.** And the IC50 (MIAPaCa-2 (pancreas))?
**A.** 1.1 µM

**Q.** And the IC50 (HL60 (leukemia))?
**A.** 5.4 µM

**Q.** What about the IC50 (MCF7 (breast)) of the same compound?
**A.** 4.7 µM

**Q.** And the IC50 (MDA-MB-231 (breast))?
**A.** 4.2 µM

**Q.** What about the IC50 [1] of the same compound?
**A.** 0.024 µM
